{"source": "patent US6872805B2", "about": "(Bristol-Myers Squibb Company, priority 2000, dated 2005)", "key": {"[1]": {"biological_target": "HCV NS3/4A protease complex (Hepatitis C virus genotype 1a, UniProt P27958, C1454S/C1711G)", "assay": "Recombinant HCV NS3/4A protease complex FRET peptide assay (strain not stated)", "format": "biochemical", "details": "IC50, NS3/4A protease enzyme assay, strain not stated; activity ranges"}, "[2]": {"system": "HCV replicon in Huh7 cells", "assay": "HCV replicon cell-based assay", "design": "species or system HCV strain 1B", "details": "Hepatitis C virus, Huh-7, 96 h; HCV replicon, Huh7 cells, 4 days; activity ranges; read-out: EC50", "how_it_was_run": "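Genotype 1b subgenomic replicon Huh7 cells exposed to compound 4 days at 37° C in 4% FCS, 0.5% DMSO medium. EC50 from TaqMan RT-PCR of HCV RNA, normalized to total RNA by RiboGreen; CC50 from alamar Blue fluorescence after 4 h.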"}}, "data": [{"compound": "C=C[C@@H]1C[C@]1(NC(=O)C1C[C@@H](Oc2cc(-c3ccccc3)nc3cc(OC)ccc23)CN1C(=O)[C@@H](Nc1ccncc1[N+](=O)[O-])C(C)(C)C)C(=O)NS(=O)(=O)C1CC1", "note": "(stereo partly drawn) [Compound 129, 1-[3,3-dimethyl-2S-(3-nitropyridin-4-ylamino)-butyryl]-4R-(7-methoxy-2-phenylquinolin-4-yloxy)-pyrrolidine-2S-carboxylic acid (1R-cyclopropanesulfonylaminocarbonyl-2S-vinylcyclopropyl)amide]", "values": [{"measurement": "IC50", "setting": "[1]", "value": "< 5", "unit": "µM"}, {"measurement": "EC50", "setting": "[2]", "value": "< 50", "unit": "µM"}]}, {"compound": "C=CC1C[C@]1(NC(=O)C1CC(Oc2cc(-c3ccccc3)nc3cc(OC)ccc23)CN1C(=O)[C@@H](NC)C(C)(C)C)C(=O)NS(=O)(=O)C1CC1", "note": "(stereo partly drawn) [Compound 132, (3,3-dimethyl-2-methylamino-butyryl)-4R-(7-methoxy-2-phenyl-quinolin-4-yloxy)-pyrrolidine-2S-carboxylic acid (1R-cyclopropanesulfonylaminocarbonyl-2S-vinyl-cyclo-propyl)amide]", "values": [{"measurement": "IC50", "setting": "[1]", "value": "< 0.05", "unit": "µM"}, {"measurement": "EC50", "setting": "[2]", "value": "< 5", "unit": "µM"}]}, {"compound": "COc1ccc2c(OC3C[C@@H](C(=O)NC4(C(=O)NS(=O)(=O)C5CC5)CC45CCC5)N(C(=O)[C@@H](NC(=O)OC(C)(C)C)C(C)(C)C)C3)cc(-c3ccccc3)nc2c1", "note": "(stereo partly drawn) [Compound 136, {1-[2-(1-Cyclopropanesulfonylaminocarbonyl-spiro[2.3]hex-1-ylcarbamoyl)-4-(7-methoxy-2-phenyl-quinolin-4-yloxy)-pyrrolidine-1-carbonyl]-2,2-dimethyl-propyl}-carbamic acid tert-butyl ester]", "values": [{"measurement": "IC50", "setting": "[1]", "value": "< 0.5", "unit": "µM"}, {"measurement": "EC50", "setting": "[2]", "value": "< 5", "unit": "µM"}]}, {"compound": "CCC(C)[C@H](NC(=O)OC(C)(C)C)C(=O)N1C[C@H](Oc2cc(-c3ccccc3)nc3cc(OC)ccc23)C[C@H]1C(=O)NC1(C(=O)NS(=O)(=O)C2CC2)CC12CCC2", "note": "(stereo partly drawn) [Compound 137]", "values": [{"measurement": "IC50", "setting": "[1]", "value": "< 5", "unit": "µM"}, {"measurement": "EC50", "setting": "[2]", "value": "< 5", "unit": "µM"}]}, {"compound": "COc1ccc2c(OC3C[C@@H](C(=O)NC4(C(=O)NS(=O)(=O)C5CC5)CC45CC5)N(C(=O)[C@@H](NC(=O)OC(C)(C)C)C(C)(C)C)C3)cc(-c3ccccc3)nc2c1", "note": "(stereo partly drawn) [Compound 140, {1-[2-(1-Cyclopropanesulfonylaminocarbonyl-spiro[2.2]pentane-1-ylcarbamoyl)-4-(7-methoxy-2-phenyl-quinolin-4-yloxy)-pyrrolidine-1-carbonyl]-2,2-dimethyl-propyl}-carbamic acid tert-butyl ester]", "values": [{"measurement": "IC50", "setting": "[1]", "value": "< 0.05", "unit": "µM"}, {"measurement": "EC50", "setting": "[2]", "value": "< 0.5", "unit": "µM"}]}, {"compound": "COc1ccc2c(OC3C[C@@H](C(=O)NC4(C(=O)NS(=O)(=O)C5CC5)CCC45CC5)N(C(=O)[C@@H](NC(=O)OC(C)(C)C)C(C)(C)C)C3)cc(-c3ccccc3)nc2c1", "note": "(stereo partly drawn) [Compound 141]", "values": [{"measurement": "IC50", "setting": "[1]", "value": "< 0.5", "unit": "µM"}, {"measurement": "EC50", "setting": "[2]", "value": "< 5", "unit": "µM"}]}]}
